Measurements reported in PubChem BioAssay AID1259411 (Chemical Carcinogenesis Research Information System (CCRIS), 2018).
Active and inactive are the calls of the source. The rule behind the calls is not given here.

Test system: rodent carcinogenicity bioassays, tumor incidence
Assay: CCRIS carcinogenicity studies
How it was run: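 NCI-built, expert-reviewed records of carcinogenicity and related test outcomes (mutagenicity, tumor promotion/inhibition) compiled from published and report sources, historical span 1985-2011, not updated.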

COc1cc2c(c3oc(=O)c4c(c13)CCC4=O)[C@]1(O)C=CO[C@@H]1O2
carcinogen call (Species: FISH, Strain/Sex: RAINBOW TROUT, Route: ORAL, Dose: 0, 1.5, 7.5, UG/KG DIET FOR 5.5 MO (STUDY DURATION: 5.5 MO), Dose: 0, 1.5, 7.5, UG/KG DIET FOR 5.5 MO (STUDY DURATION: 5.5 MO), Tumor Site: Type of Lesion: LIVER: HEPATOMA): active; positive | carcinogen call (Species: RAT, Strain/Sex: F344/MALE, Route: ORAL, Dose: 0, 0.5, 5, 50 PPB IN AGAR BASED SEMISYNTHETIC DIET FOR STUDY DURATION (STUDY DURATION: 21 MO), Dose: 0, 0.5, 5, 50 PPB IN AGAR BASED SEMISYNTHETIC DIET FOR STUDY DURATION (STUDY DURATION: 21 MO), Tumor Site: Type of Lesion: LIVER: NEOPLASTIC NODULE, HEPATOCELLULAR CARCINOMA): active; positive | carcinogen call (Species: TROUT, Strain/Sex: MT. SHASTA RAINBOW, Route: ORAL, Dose: 4, 16, 32, 64 PPB IN DIET FOR 12 MO, Dose: 4, 16, 32, 64 PPB IN DIET FOR 12 MO, Tumor Site: Type of Lesion: LIVER: HEPATOMA): active; positive

Nc1ccc2cc3ccc(N)cc3nc2c1
carcinogen call (Species: MOUSE, Strain/Sex: B6C3F1/FEMALE, Route: ORAL, Dose: 0, 200, 400 PPM IN DIET FOR 104 WK (STUDY DURATION: 104 WK), Dose: 0, 200, 400 PPM IN DIET FOR 104 WK (STUDY DURATION: 104 WK), Tumor Site: Type of Lesion: LIVER: HEPATOCELLULAR CARCINOMA): equivocal | carcinogen call (Species: MOUSE, Strain/Sex: B6C3F1/MALE, Route: ORAL, Dose: 0, 200, 400 PPM IN DIET FOR 104 WK (STUDY DURATION: 104 WK), Dose: 0, 200, 400 PPM IN DIET FOR 104 WK (STUDY DURATION: 104 WK), Tumor Site: Type of Lesion: LIVER: HEPATOCELLULAR CARCINOMA): equivocal | carcinogen call (Species: RAT, Strain/Sex: F344/FEMALE, Route: ORAL, Dose: 0, 300, 600 PPM IN DIET, Dose: 0, 300, 600 PPM IN DIET): inactive; negative | carcinogen call (Species: RAT, Strain/Sex: F344/MALE, Route: ORAL, Dose: 0, 300, 600 PPM IN DIET FOR 109 WK (STUDY DURATION: 109 WK), Dose: 0, 300, 600 PPM IN DIET FOR 109 WK (STUDY DURATION: 109 WK), Tumor Site: Type of Lesion: INTESTINE: LEIOMYOSARCOMA OR ADENOCARCINOMA OR SARCOMA): equivocal

OC1c2nc3c(ccc4ccccc43)cc2C2OC2C1O (stereo unspecified)
carcinogen call (Species: MOUSE, Strain/Sex: SWISS/FEMALE, Route: INTRAPERITONEAL, Dose: 0, 1.05 UMOL GIVEN AS 150 NMOL IN 5 µL DMSO WITHIN 24 HR OF BIRTH, 300 NMOL IN 10 µL DMSO ON D 8 OF LIFE, AND 600 NMOL I): inactive; negative | carcinogen call (Species: MOUSE, Strain/Sex: SWISS/MALE, Route: INTRAPERITONEAL, Dose: 0, 1.05 UMOL GIVEN AS 150 NMOL IN 5 µL DMSO WITHIN 24 HR OF BIRTH, 300 NMOL IN 10 µL DMSO ON D 8 OF LIFE, AND 600 NMOL I): inactive; negative

CCSCCC(N)C(=O)O (stereo unspecified)
carcinogen call (Species: RAT, Strain/Sex: F344/MALE, Route: ORAL, Dose: 0, 0.05% IN METHYL-DEFICIENT DIET FOR 8 MO, STUDY DURATION: 20 MO, Dose: 0, 0.05% IN METHYL-DEFICIENT DIET FOR 8 MO, STUDY DURATION: 20 MO, Tumor Site: Type of Lesion: LIVER: HEPATOCELLULAR CARCINOMA): active; positive | carcinogen call (Species: RAT, Strain/Sex: F344/MALE, Route: ORAL, Dose: 0.25% IN DIET FOR 24 WK, Tumor Site: Type of Lesion: LIVER): active; positive | carcinogen call (Species: RAT, Strain/Sex: OSBORNE-MENDEL/MALE,FEMALE, Route: ORAL, Dose: 0.25% IN BASAL DIET FOR 8-9 MO, Tumor Site: Type of Lesion: LIVER: CARCINOMA): active; positive | carcinogen call (Species: RAT, Strain/Sex: SPRAGUE-DAWLEY, Route: ORAL, Dose: 0.25% IN DIET FOR 8 MO, Tumor Site: Type of Lesion: LIVER: CARCINOMA): active; positive | carcinogen call (Species: RAT, Strain/Sex: WISTAR/MALE,FEMALE, Route: ORAL, Dose: 0.25% IN BASAL DIET FOR 8 MO THEN STOCK DIET FOR 2 MO, Tumor Site: Type of Lesion: LIVER: CARCINOMA): active; positive

C=C1C[C@]23C[C@@]1(O)CC[C@H]2[C@@]12C=C[C@H](O)[C@@](C)(C(=O)O1)[C@H]2[C@@H]3C(=O)O
carcinogen call (Species: MOUSE, Strain/Sex: SWISS/FEMALE, Route: GAVAGE, Dose: 0, 3 PPM IN 0.3 ML PHYSIOLOGICAL SALINE 2/WK FOR 22 MO (STUDY DURATION: 22 MO), Tumor Site: Type of Lesion: BREAST: ADENOCARCINOMA, SKIN: SEBACEOUS ADENOMA): active; positive | carcinogen call (Species: MOUSE, Strain/Sex: SWISS/MALE, Route: GAVAGE, Dose: 0, 3 PPM IN 0.3 ML PHYSIOLOGICAL SALINE 2/WK FOR 22 MO (STUDY DURATION: 22 MO), Tumor Site: Type of Lesion: SKIN: SEBACEOUS ADENOMA, LUNG: TUMOR): active; positive

ClC/C=C/CCl
carcinogen call (Species: RAT, Strain/Sex: CD/MALE, Route: INHALATION, Dose: 0, 0.1, 0.3, 1.0 PPM 6 HR/D 5 D/WK FOR 86 WK (STUDY DURATION: 86 WK), Dose: 0, 0.1, 0.3, 1.0 PPM 6 HR/D 5 D/WK FOR 86 WK (STUDY DURATION: 86 WK), Tumor Site: Type of Lesion: NASAL CAVITY: ADENOMA, ADENOCARCINOMA, CARCINOSARCOMA, MIXED CARCINOMA): active; positive | carcinogen call (Species: Rat, Strain/Sex: CD BR/Female (140/group), Route: Inhalation, Dose: 0, 0.5 6 hr/d for 2 yr, 5 ppm 6 hr/d lowered to 2.5 ppm after 7 mo and continued an additional 5 mo with a 1-yr maintena, Dose: 0, 0.5 6 hr/d for 2 yr, 5 ppm 6 hr/d lowered to 2.5 ppm after 7 mo and continued an additional 5 mo with a 1-yr maintena, Tumor Site: Type of Lesion: Nasal Passages: Benign (0 (0%), 23 (18%), 5 (3.9%)) and malignant tumors (0 (0%), 2 (1.6%), 113 (88.3%))): active; positive | carcinogen call (Species: Rat, Strain/Sex: CD BR/Male (140/group), Route: Inhalation, Dose: 0, 0.5 6 hr/d for 2 yr, 5 ppm 6 hr/d lowered to 2.5 ppm after 7 mo and continued an additional 5 mo with a 1-yr maintena, Dose: 0, 0.5 6 hr/d for 2 yr, 5 ppm 6 hr/d lowered to 2.5 ppm after 7 mo and continued an additional 5 mo with a 1-yr maintena, Tumor Site: Type of Lesion: Nasal Passages: Benign (0 (0%), 33 (25.4%), 2 (1.6%)) and malignant tumors (0 (0%), 11 (8.5%), 114 (88.4%))): active; positive

FCCl
carcinogen call (Species: RAT, Strain/Sex: WISTAR/MALE,FEMALE, Route: GAVAGE, Dose: 300 MG/KG IN CORN OIL 5/WK FOR 52 WK, Tumor Site: Type of Lesion: STOMACH: SQUAMOUS CELL CARCINOMA, FIBROSARCOMA): active; positive

CC(O)C(=O)O (stereo unspecified)
carcinogen call (Species: RAT, Strain/Sex: F344/FEMALE, Route: ORAL, Dose: 0, 2.5, 5% IN DRINKING WATER FOR 104 WK (MEAN TOTAL INTAKE 0; 237.7; 412.1 G/RAT) (STUDY DURATION: 113 WK), Dose: 0, 2.5, 5% IN DRINKING WATER FOR 104 WK (MEAN TOTAL INTAKE 0; 237.7; 412.1 G/RAT) (STUDY DURATION: 113 WK)): inactive; negative | carcinogen call (Species: RAT, Strain/Sex: F344/MALE, Route: ORAL, Dose: 0, 2.5, 5% IN DRINKING WATER FOR 104 WK (MEAN TOTAL INTAKE 0; 329.4; 625.4 G/RAT) (STUDY DURATION: 113 WK), Dose: 0, 2.5, 5% IN DRINKING WATER FOR 104 WK (MEAN TOTAL INTAKE 0; 329.4; 625.4 G/RAT) (STUDY DURATION: 113 WK)): inactive; negative

CCOP(=O)=O.CCOP(=O)=O.CCOP(=O)=O.[Al+3]
carcinogen call (Species: Mouse, Strain/Sex: CD-1/Female (60/Group), Route: Oral): inactive; negative | carcinogen call (Species: Mouse, Strain/Sex: CD-1/Male (60/Group), Route: Oral): inactive; negative | carcinogen call (Species: Rat, Strain/Sex: CD Sprague-Dawley/Male (80/Group), Route: Oral, Dose: 0, 88, 348, 1372 mg/kg/day in diet for 24 mo, study duration 24 mo, Dose: 0, 88, 348, 1372 mg/kg/day in diet for 24 mo, study duration 24 mo, Tumor Site: Type of Lesion: Adrenal medulla: pheochromocytoma (5/80, 7/79. 15/81, 16/81). Urinary bladder: Carcinoma and papilloma combined (1/78 in): active; positive. (department of pesticides regulation reviewer described as a possible | carcinogen call (Species: Rat, Strain/Sex: CD Sprague-Dawley/Male (80/Group), Route: Oral, Dose: 0, 117, 450, 1786 mg/kg/day in diet for 24 mo, study duration 24 mo, Dose: 0, 117, 450, 1786 mg/kg/day in diet for 24 mo, study duration 24 mo): inactive; negative

S=C=NCCc1ccccc1
carcinogen call (Species: RAT, Strain/Sex: F344/MALE, Route: DIET (ORAL), Dose: 0.1% FOR 12 WK (STUDY DURATION: 48 WK)): inactive; negative (bladder hyperplasias observed) | carcinogen call (Species: RAT, Strain/Sex: F344/MALE, Route: DIET (ORAL), Dose: 0.1% FOR 24 WK (STUDY DURATION: 48 WK)): inactive; negative (bladder hyperplasias observed) | carcinogen call (Species: RAT, Strain/Sex: F344/MALE, Route: DIET (ORAL), Dose: 0.1% FOR 48 WK (STUDY DURATION: 48 WK)): inactive; negative (bladder hyperplasias and dysplasias observed) | carcinogen call (Species: RAT, Strain/Sex: F344/MALE, Route: ORAL, Dose: 0.1% IN DIET FOR 32 WK, THEN SWITCHED TO BASAL DIET FOR 16 WK (STUDY DURATION: 48 WK), Tumor Site: Type of Lesion: URINARY BLADDER: CARCINOMA): active; positive | carcinogen call (Species: RAT, Strain/Sex: F344/MALE, Route: ORAL, Dose: 0.1% IN DIET FOR 48 WK (STUDY DURATION: 48 WK), Tumor Site: Type of Lesion: URINARY BLADDER: CARCINOMA): active; positive
